From patent US20240228506A1, “RIPK1 INHIBITORS AND METHODS OF USE” (Merck Sharp & Dohme LLC, priority 2021, published 2024)

Biological target: T1, GST-RIPK1 (recombinant GST-RIPK1 kinase domain (residues 1-327)) (Homo sapiens, UniProt Q13546)
T1 construct: recombinant GST-RIPK1 kinase domain (residues 1-327) enzyme; made in house; host or cells: baculovirus-transfected Sf21 insect cells
T1 sequence (Q13546 1-327): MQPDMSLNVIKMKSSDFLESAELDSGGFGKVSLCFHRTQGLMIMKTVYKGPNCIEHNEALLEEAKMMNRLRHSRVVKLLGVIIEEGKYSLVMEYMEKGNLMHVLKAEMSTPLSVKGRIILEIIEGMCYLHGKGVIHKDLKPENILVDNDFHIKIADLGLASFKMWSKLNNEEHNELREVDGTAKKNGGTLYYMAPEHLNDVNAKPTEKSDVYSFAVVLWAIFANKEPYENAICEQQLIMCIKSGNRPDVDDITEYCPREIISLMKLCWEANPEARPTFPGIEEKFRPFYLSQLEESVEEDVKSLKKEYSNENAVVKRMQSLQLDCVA
Test: RIPK1-ADP-Glo enzymatic assay
Type: biochemical
Conditions: 25 nM GST-RIPK1, 300 μM ATP, 3 μM dephosphorylated-MBP; 30 minutes pre-incubation, 150 minutes reaction; ten-point titration
Method in brief: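 Ten-point 1:3 titrations from 100000 nM, 1% DMSO, were preincubated 30 min with 25 nM GST-RIPK1 (1-327) before starting with 300 μM ATP plus 3 μM dephosphorylated MBP; 150 min reaction. ADP-Glo luminescence measured ATP-to-ADP conversion; EC50 by four-parameter sigmoidal regression.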

SMILES | IC50 [nM]
CC(C)(C(=O)N1C[C@@H]2C[C@H]1c1cncc(C#Cc3cccnc3)c1O2)C(F)F [Compound 2-48, 3,3-difluoro-2,2-dimethyl-1-((2S,5S)-9-(pyridin-3-ylethynyl)-2,3-dihydro-2,5-methanopyrido[3,4-f][1,4]oxazepin-4(5H)-yl)propan-1-one] | 36
CC(C)(C(=O)N1C[C@@H]2C[C@H]1c1cncc(C#Cc3cnccn3)c1O2)C(F)F [Compound 2-49, 3,3-difluoro-2,2-dimethyl-1-((2S,5S)-9-(pyrazin-2-ylethynyl)-2,3-dihydro-2,5-methanopyrido[3,4-f][1,4]oxazepin-4(5H)-yl)propan-1-one] | 83
O=C(N1C[C@@H]2C[C@H]1c1cncc(C#Cc3cncnc3)c1O2)C12CCC(C(F)(F)F)(CC1)C2 [Compound 2-50, ((2S,5S)-9-(Pyrimidin-5-ylethynyl)-2,3-dihydro-2,5-methanopyrido[3,4-f][1,4]oxazepin-4(5H)-yl)(4-(trifluoromethyl)bicyclo[2.2.1]heptan-1-yl)methanone] | 15
O=C(N1C[C@@H]2C[C@H]1c1cncc(C#Cc3cccnn3)c1O2)C12CCC(C(F)(F)F)(CC1)C2 [Compound 2-51, ((2S,5S)-9-(pyridazin-3-ylethynyl)-2,3-dihydro-2,5-methanopyrido[3,4-f][1,4]oxazepin-4(5H)-yl)(4-(trifluoromethyl)bicyclo [2.2.1]heptan-1-yl)methanone] | 17
O=C(N1C[C@@H]2C[C@H]1c1cncc(C#Cc3ccncc3)c1O2)C12CCC(C(F)(F)F)(CC1)C2 [Compound 2-52, ((2S,5S)-9-(pyridin-4-ylethynyl)-2,3-dihydro-2,5-methanopyrido[3,4-f][1,4]oxazepin-4(5H)-yl)(4-(trifluoromethyl)bicyclo [2.2.1]heptan-1-yl)methanone] | 30
O=C(N1C[C@@H]2C[C@H]1c1cncc(C#Cc3cnc4ccoc4c3)c1O2)C12CCC(C(F)(F)F)(CC1)C2 [Compound 2-53, ((2S,5S)-9-(furo[3,2-b]pyridin-6-ylethynyl)-2,3-dihydro-2,5-methanopyrido[3,4-f][1,4]oxazepin-4(5H)-yl)(4-(trifluoromethyl)bicyclo [2.2.1]heptan-1-yl)methanone] | 17
O=C(N1C[C@@H]2C[C@H]1c1cncc(C#Cc3cscn3)c1O2)C12CCC(C(F)(F)F)(CC1)C2 [Compound 2-54, ((2S,5S)-9-(thiazol-4-ylethynyl)-2,3-dihydro-2,5-methanopyrido[3,4-f][1,4]oxazepin-4(5H)-yl)(4-(trifluoromethyl)bicyclo [2.2.1]heptan-1-yl)methanone] | 18
Cn1cncc1C#Cc1cncc2c1O[C@H]1C[C@@H]2N(C(=O)C23CCC(C(F)(F)F)(CC2)C3)C1 [Compound 2-55, ((2S,5S)-9-((1-methyl-1H-imidazol-5-yl)ethynyl)-2,3-dihydro-2,5-methanopyrido[3,4-f][1,4]oxazepin-4(5H)-yl)(4-(trifluoromethyl)bicyclo [2.2.1]heptan-1-yl)methanone] | 26
O=C(N1C[C@@H]2C[C@H]1c1cncc(C#CCn3ccnc3)c1O2)C12CCC(C(F)(F)F)(CC1)C2 [Compound 2-56, ((2S,5S)-9-(3-(1H-imidazol-1-yl)prop-1-yn-1-yl)-2,3-dihydro-2,5-methanopyrido[3,4-f][1,4]oxazepin-4(5H)-yl)(4-(trifluoromethyl)bicyclo [2.2.1]heptan-1-yl)methanone] | 23
O=C(N1C[C@@H]2C[C@H]1c1cncc(C#CCO)c1O2)C12CCC(C(F)(F)F)(CC1)C2 [Compound 2-57, ((2S,5S)-9-(3-hydroxyprop-1-yn-1-yl)-2,3-dihydro-2,5-methanopyrido[3,4-f][1,4]oxazepin-4(5H)-yl)(4-(trifluoromethyl)bicyclo[2.2.1]heptan-1-yl)methanone] | 78
O=C(N1C[C@@H]2C[C@H]1c1cncc(C#Cc3cccnc3)c1O2)C12CCC(C(F)(F)F)(CC1)C2 [Compound 2-58, ((2S,5S)-9-(pyridin-3-ylethynyl)-2,3-dihydro-2,5-methanopyrido[3,4-f][1,4]oxazepin-4(5H)-yl)(4-(trifluoromethyl)bicyclo [2.2.1]heptan-1-yl)methanone] | 12
O=C(N1C[C@@H]2C[C@H]1c1cncc(C#Cc3ccc(F)cc3F)c1O2)C12CCC(C(F)(F)F)(CC1)C2 [Compound 2-59, ((2S,5S)-9-((2,4-difluorophenyl)ethynyl)-2,3-dihydro-2,5-methanopyrido[3,4-f][1,4]oxazepin-4(5H)-yl)(4-(trifluoromethyl)bicyclo[2.2.1]heptan-1-yl)methanone] | 22
O=C(N1C[C@@H]2C[C@H]1c1cncc(C#Cc3ccccn3)c1O2)C12CCC(C(F)(F)F)(CC1)C2 [Compound 2-60, ((2S,5S)-9-(pyridin-2-ylethynyl)-2,3-dihydro-2,5-methanopyrido[3,4-f][1,4]oxazepin-4(5H)-yl)(4-(trifluoromethyl)bicyclo [2.2.1]heptan-1-yl)methanone] | 73
O=C(N1C[C@@H]2C[C@H]1c1cncc(C#Cc3cnccn3)c1O2)C12CCC(C(F)(F)F)(CC1)C2 [Compound 2-61, ((2S,5S)-9-(pyrazin-2-ylethynyl)-2,3-dihydro-2,5-methanopyrido[3,4-f][1,4]oxazepin-4(5H)-yl)(4-(trifluoromethyl)bicyclo [2.2.1]heptan-1-yl)methanone] | 22
Cc1ccc(C#Cc2cncc3c2O[C@H]2C[C@@H]3N(C(=O)C34CCC(C(F)(F)F)(CC3)C4)C2)cn1 [Compound 2-62] | 17
Cc1ccncc1C#Cc1cncc2c1O[C@H]1C[C@@H]2N(C(=O)C23CCC(C(F)(F)F)(CC2)C3)C1 [Compound 2-63, ((2S,5S)-9-((4-methylpyridin-3-yl)ethynyl)-2,3-dihydro-2,5-methanopyrido[3,4-f][1,4]oxazepin-4(5H)-yl)(4-(trifluoromethyl)bicyclo [2.2.1]heptan-1-yl)methanone] | 14
O=C(N1C[C@@H]2C[C@H]1c1cncc(C#Cc3ccccc3)c1O2)C12CCC(C(F)(F)F)(CC1)C2 [Compound 2-64, ((2S,5S)-9-(phenylethynyl)-2,3-dihydro-2,5-methanopyrido[3,4-f][1,4]oxazepin-4(5H)-yl)(4-(trifluoromethyl)bicyclo [2.2.1]heptan-1-yl)methanone] | 16
COc1ccc(C#Cc2cncc3c2O[C@H]2C[C@@H]3N(C(=O)C34CCC(C(F)(F)F)(CC3)C4)C2)cc1 [Compound 2-65, ((2S,5S)-9-((4-methoxyphenyl)ethynyl)-2,3-dihydro-2,5-methanopyrido[3,4-f][1,4]oxazepin-4(5H)-yl)(4-(trifluoromethyl)bicyclo [2.2.1]heptan-1-yl)methanone] | 18
COc1cccc(C#Cc2cncc3c2O[C@H]2C[C@@H]3N(C(=O)C34CCC(C(F)(F)F)(CC3)C4)C2)c1 [Compound 2-66, ((2S,5S)-9-((3-methoxyphenyl)ethynyl)-2,3-dihydro-2,5-methanopyrido[3,4-f][1,4]oxazepin-4(5H)-yl)(4-(trifluoromethyl)bicyclo [2.2.1]heptan-1-yl)methanone] | 18
O=C(N1C[C@@H]2C[C@H]1c1cncc(C#Cc3ccncn3)c1O2)C12CCC(C(F)(F)F)(CC1)C2 [Compound 2-67, ((2S,5S)-9-(pyrimidin-4-ylethynyl)-2,3-dihydro-2,5-methanopyrido[3,4-f][1,4]oxazepin-4(5H)-yl)(4-(trifluoromethyl)bicyclo [2.2.1]heptan-1-yl)methanone] | 32
O=C(N1C[C@@H]2C[C@H]1c1cncc(C#Cc3ncccn3)c1O2)C12CCC(C(F)(F)F)(CC1)C2 [Compound 2-68, ((2S,5S)-9-(pyrimidin-2-ylethynyl)-2,3-dihydro-2,5-methanopyrido[3,4-f][1,4]oxazepin-4(5H)-yl)(4-(trifluoromethyl)bicyclo [2.2.1]heptan-1-yl)methanone] | 134
COc1ccnc(C#Cc2cncc3c2O[C@H]2C[C@@H]3N(C(=O)C34CCC(C(F)(F)F)(CC3)C4)C2)c1 [Compound 2-69, ((2S,5S)-9-((4-methoxypyridin-2-yl)ethynyl)-2,3-dihydro-2,5-methanopyrido[3,4-f][1,4]oxazepin-4(5H)-yl)(4-(trifluoromethyl)bicyclo [2.2.1]heptan-1-yl)methanone] | 41
COc1ccccc1C#Cc1cncc2c1O[C@H]1C[C@@H]2N(C(=O)C23CCC(C(F)(F)F)(CC2)C3)C1 [Compound 2-70, ((2S,5S)-9-((2-methoxyphenyl)ethynyl)-2,3-dihydro-2,5-methanopyrido[3,4-f][1,4]oxazepin-4(5H)-yl)(4-(trifluoromethyl)bicyclo [2.2.1]heptan-1-yl)methanone] | 72
Cc1nnc(C#Cc2cncc3c2O[C@H]2C[C@@H]3N(C(=O)C(C)(C)C(F)F)C2)o1 [Compound 2-71, 3,3-Difluoro-2,2-dimethyl-1-((2S,5S)-9-((5-methyl-1,3,4-oxadiazol-2-yl)ethynyl)-2,3-dihydro-2,5-methanopyrido[3,4-f][1,4]oxazepin-4(5H)-yl)propan-1-one] | 89
CC(C)(C(=O)N1C[C@@H]2C[C@H]1c1cncc(C#Cc3ncco3)c1O2)C(F)F [Compound 2-72] | 68
